The text below walks through data of patent US9458110B2, “Phenylpyrazole derivatives as potent ROCK1 and ROCK2 inhibitors” (BRISTOL-MYERS SQUIBB COMPANY, priority 2013, dated 2016).

Molecules are shown by their SMILES. pIC50: −log10 of the molar value.

Assay [1] has as its target ROCK1 (Homo sapiens (Human), UniProt Q13464). The experiment in a line: ROCK assay (Caliper LABCHIP peptide phosphorylation), ROCK1.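 Note: Read-out is separation of phosphorylated from unphosphorylated peptide, with kinase activity inhibition computed at every concentration of a dose-response series.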 Format: biochemical. The settings on record: 5 μM ATP, 1.5 μM peptide substrate.
In assay [2] the target is ROCK2 (Homo sapiens (Human), UniProt O75116). The experiment in a line: ROCK assay (Caliper LABCHIP peptide phosphorylation), ROCK2.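 Note: reaction stopped with EDTA, then phosphorylated and unphosphorylated peptide resolved by microfluidic electrophoresis, kinase inhibition computed at each compound concentration in dose-response series, DMSO under 2%.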 Format: biochemical. As to conditions: 5 μM ATP, 1.5 μM peptide substrate.
ROCK2, sequence (O75116 whole entry, species assumed): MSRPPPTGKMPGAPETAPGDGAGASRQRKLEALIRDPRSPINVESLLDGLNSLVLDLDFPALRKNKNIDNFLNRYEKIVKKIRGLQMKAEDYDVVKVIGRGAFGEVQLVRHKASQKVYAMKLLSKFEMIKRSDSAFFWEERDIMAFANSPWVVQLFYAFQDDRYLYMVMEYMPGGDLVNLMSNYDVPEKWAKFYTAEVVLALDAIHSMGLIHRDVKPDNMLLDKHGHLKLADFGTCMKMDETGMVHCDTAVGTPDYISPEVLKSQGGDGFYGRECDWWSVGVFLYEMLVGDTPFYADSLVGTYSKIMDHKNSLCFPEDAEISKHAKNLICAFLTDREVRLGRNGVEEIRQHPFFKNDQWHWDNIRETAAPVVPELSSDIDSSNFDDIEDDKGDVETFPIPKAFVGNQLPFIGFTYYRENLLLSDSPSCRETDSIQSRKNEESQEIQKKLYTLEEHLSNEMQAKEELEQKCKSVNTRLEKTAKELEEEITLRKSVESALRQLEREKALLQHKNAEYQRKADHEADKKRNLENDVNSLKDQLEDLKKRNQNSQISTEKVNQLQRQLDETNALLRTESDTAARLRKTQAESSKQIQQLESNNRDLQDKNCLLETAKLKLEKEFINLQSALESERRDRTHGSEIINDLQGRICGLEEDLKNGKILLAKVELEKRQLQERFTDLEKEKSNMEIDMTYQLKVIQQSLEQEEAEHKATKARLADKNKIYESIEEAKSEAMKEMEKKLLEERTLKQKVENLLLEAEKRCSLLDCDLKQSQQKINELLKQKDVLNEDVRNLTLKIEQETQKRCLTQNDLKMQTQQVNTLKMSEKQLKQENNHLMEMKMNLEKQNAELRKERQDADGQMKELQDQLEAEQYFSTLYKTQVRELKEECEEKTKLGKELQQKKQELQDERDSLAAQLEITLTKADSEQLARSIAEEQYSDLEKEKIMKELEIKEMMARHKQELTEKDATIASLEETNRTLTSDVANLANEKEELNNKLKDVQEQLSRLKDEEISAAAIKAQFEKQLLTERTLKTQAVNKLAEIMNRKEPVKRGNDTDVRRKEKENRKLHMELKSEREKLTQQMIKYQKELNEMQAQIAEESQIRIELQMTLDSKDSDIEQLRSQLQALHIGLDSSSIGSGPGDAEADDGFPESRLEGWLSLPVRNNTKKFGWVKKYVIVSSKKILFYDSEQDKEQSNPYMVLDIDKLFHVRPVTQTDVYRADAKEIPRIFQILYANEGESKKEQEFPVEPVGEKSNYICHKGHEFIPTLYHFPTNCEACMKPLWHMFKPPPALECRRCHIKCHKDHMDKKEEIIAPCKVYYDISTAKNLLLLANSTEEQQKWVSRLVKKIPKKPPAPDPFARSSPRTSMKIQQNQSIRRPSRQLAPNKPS

ROCK1, sequence (Q13464 whole entry, species assumed): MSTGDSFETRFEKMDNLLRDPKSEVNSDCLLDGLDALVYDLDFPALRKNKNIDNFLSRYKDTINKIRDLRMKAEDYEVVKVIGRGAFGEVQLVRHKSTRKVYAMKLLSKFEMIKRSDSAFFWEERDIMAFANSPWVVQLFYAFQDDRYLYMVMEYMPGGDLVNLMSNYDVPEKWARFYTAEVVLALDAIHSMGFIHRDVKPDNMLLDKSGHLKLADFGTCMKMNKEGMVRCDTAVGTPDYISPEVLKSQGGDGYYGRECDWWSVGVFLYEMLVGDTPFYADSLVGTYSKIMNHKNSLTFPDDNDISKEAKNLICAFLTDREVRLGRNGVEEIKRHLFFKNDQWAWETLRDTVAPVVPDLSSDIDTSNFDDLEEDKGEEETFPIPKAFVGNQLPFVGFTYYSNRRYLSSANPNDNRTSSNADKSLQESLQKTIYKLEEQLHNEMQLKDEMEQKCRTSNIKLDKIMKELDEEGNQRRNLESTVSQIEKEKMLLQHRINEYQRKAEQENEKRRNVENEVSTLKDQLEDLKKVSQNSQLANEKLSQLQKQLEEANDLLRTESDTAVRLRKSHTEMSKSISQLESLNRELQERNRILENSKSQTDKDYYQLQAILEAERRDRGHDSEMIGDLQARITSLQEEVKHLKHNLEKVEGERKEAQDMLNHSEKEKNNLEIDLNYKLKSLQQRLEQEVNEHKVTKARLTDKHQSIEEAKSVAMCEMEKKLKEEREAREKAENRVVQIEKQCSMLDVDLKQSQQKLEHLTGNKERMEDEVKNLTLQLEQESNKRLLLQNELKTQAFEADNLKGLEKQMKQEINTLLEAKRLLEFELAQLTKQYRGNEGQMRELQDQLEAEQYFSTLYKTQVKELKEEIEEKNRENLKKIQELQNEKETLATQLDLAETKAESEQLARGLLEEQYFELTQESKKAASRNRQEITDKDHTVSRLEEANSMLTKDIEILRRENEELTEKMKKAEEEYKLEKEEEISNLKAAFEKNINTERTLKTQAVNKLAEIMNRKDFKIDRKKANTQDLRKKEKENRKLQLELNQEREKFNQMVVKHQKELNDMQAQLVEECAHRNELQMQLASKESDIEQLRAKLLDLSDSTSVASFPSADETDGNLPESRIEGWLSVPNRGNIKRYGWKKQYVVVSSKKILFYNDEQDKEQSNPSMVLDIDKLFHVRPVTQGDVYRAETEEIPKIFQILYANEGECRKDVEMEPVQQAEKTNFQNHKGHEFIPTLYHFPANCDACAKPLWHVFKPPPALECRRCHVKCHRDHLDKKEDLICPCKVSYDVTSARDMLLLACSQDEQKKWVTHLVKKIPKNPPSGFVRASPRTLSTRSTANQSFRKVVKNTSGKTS

Broadly, the pIC50 is the IC50 on a negative log10 scale, so that one unit is a factor of ten. Read a low pIC50 as a high IC50. For `COc1cc(C(=O)NCc2cccc(-c3ccccc3)c2)ccc1-c1cn[nH]c1` [Example 18, N-([1,1′-biphenyl]-3-ylmethyl)-3-methoxy-4-(1H-pyrazol-4-yl)benzamide], the pIC50 in assay [1] was 6.48; in assay [2], 6.89.
The matching figures for `COc1cc(C(=O)NCc2nc3ccccc3s2)ccc1-c1cn[nH]c1` [Example 16, N-(benzo[d]thiazol-2-ylmethyl)-3-methoxy-4-(1H-pyrazol-4-yl)benzamide]: 6.25 and 6.36.
The matching figures for `Cc1cc(C(=O)NCc2cccc(C(=O)NC[C@H]3CCCN3)c2)ccc1-c1cn[nH]c1` [Example 245, 3-methyl-4-(1H-pyrazol-4-yl)-N-[(3-{[(2R)-pyrrolidin-2-ylmethyl]carbamoyl}phenyl)methyl] benzamide]: 8.61 and 9.15.
In the same order, the values of `C[C@@H](NC(=O)c1ccc(-c2cn[nH]c2)c(O)c1)c1ccc(F)cc1` [Example 183, N-[(1R)-1-(4-fluorophenyl)ethyl]-3-hydroxy-4-(1H-pyrazol-4-yl)benzamide] are 8.65 and 8.11.
With `COc1cc(C(=O)NC(CN)Cc2ccccc2)ccc1-c1cn[nH]c1` (stereo not shown) [Example 232, N-(1-amino-3-phenylpropan-2-yl)-3-methoxy-4-(1H-pyrazol-4-yl)benzamide], the figures for the pIC50 in assay [1] and in assay [2] were 8.98 and 9.44, respectively.
The matching figures for `COC[C@@H](NC(=O)c1ccc(-c2cn[nH]c2)c(C(C)O)c1)c1ccccc1` (stereo partly drawn) [Example 274, 3-(1-hydroxyethyl)-N-[(1S)-2-methoxy-1-phenylethyl]-4-(1H-pyrazol-4-yl)benzamide]: 6.54 and 6.58.
The matching figures for `COc1ccccc1CCNC(=O)c1ccc(-c2cn[nH]c2)c(OC)c1` [Example 126, 3-methoxy-N-[2-(2-methoxyphenyl)ethyl]-4-(1H-pyrazol-4-yl)benzamide]: 6.81 and 5.87.
The matching figures for `COc1cc(-c2cn[nH]c2)ccc1C(=O)NC(C)c1c(F)cccc1F` (stereo not shown) [Example 226, N-[1-(2,6-difluorophenyl)ethyl]-2-methoxy-4-(1H-pyrazol-4-yl)benzamide]: 7.58 and 8.29.
As to `COc1cc(C(=O)N[C@H](CO)Cc2ccccc2)ccc1-c1cn[nH]c1` [Example 128, N-[(2S)-1-hydroxy-3-phenylpropan-2-yl]-3-methoxy-4-(1H-pyrazol-4-yl)benzamide], the pIC50 was 7.90 in assay [1] and 8.24 in assay [2].
In the same order, the values of `COc1cc(C(=O)NCc2ccc(Cl)c(C(F)(F)F)c2)ccc1-c1cn[nH]c1` [Example 39, N-(4-chloro-3-(trifluoromethyl)benzyl)-3-methoxy-4-(1H-pyrazol-4-yl)benzamide] are 6.97 and 7.48.
In the same order, the values of `COc1cc(C(=O)NCCc2ccc(F)cc2)ccc1-c1cn[nH]c1` [Example 24, N-(4-fluorophenethyl)-3-methoxy-4-(1H-pyrazol-4-yl)benzamide] are 7.43 and 7.81.
In the same order, the values of `COc1cc(C(=O)NCc2cccc(C(=O)N(C)C)c2)ccc1-c1cn[nH]c1` [Example 235, N-{[3-(dimethyl-carbamoyl)phenyl]methyl}-3-methoxy-4-(1H-pyrazol-4-yl)benzamide] are 6.30 and 7.03.
In the case of `CCS(=O)(=O)NC[C@@H](NC(=O)c1ccc(-c2cn[nH]c2)c(OC)c1)c1ccccc1` [Example 262, N-[(1S)-2-ethane-sulfonamido-1-phenylethyl]-3-methoxy-4-(1H-pyrazol-4-yl)benzamide], the pIC50 in assay [1] is 7.26; in assay [2], 7.44.
In the same order, the values of `COc1cccc([C@@H](C)NC(=O)c2ccc(-c3c(C)n[nH]c3C)cc2OC)c1` [Example 304, 4-(3,5-Dimethyl-1H-pyrazol-4-yl)-2-methoxy-N-[(1R)-1-(3-methoxyphenyl)ethyl]benzamide] are 6.88 and 7.61.
